Results: ChEMBL document CHEMBL2385071, “Synthesis and biological investigation of coumarin piperazine (piperidine) derivatives as potential multireceptor atypical antipsychotics” (J Med Chem, 2013)

Key:
D(2) dopamine receptor [1] = molecular target: T1, D(2) dopamine receptor (Homo sapiens, UniProt P14416); test: Agonist activity at dopamine D2 receptor (unknown origin) expressed in CHOK1 cells coexpressing Galpha15 at 10 uM by FLIPR assay relative to control; format: cell-based; settings: CHO-K1
Mus musculus [2] = test: Toxicity in mouse assessed as weight gain at 0.3 to 2.7 mg/kg, po for 28 days; format: organism-based; design: dose 0.3-2.7 mg/kg, route oral; settings: in vivo, 672 h
D(2) dopamine receptor [3] = molecular target: T1, D(2) dopamine receptor; test: Antagonist activity at dopamine D2 receptor (unknown origin) expressed in CHOK1 cells coexpressing Galpha15 assessed as inhibition of agonist-induced response at 10 uM incubated for 60 mins in incubator followed by 15 mins at room temperature by FLIPR assay relative to control; format: cell-based; settings: CHO-K1
Mus musculus [4] = species: Mus musculus; test: animal or person; settings: po
Mus musculus [5] = test: Toxicity in mouse assessed as effect on serum prolactin level at 0.3 to 2.7 mg/kg, po for 28 days measured 180 mins after last treatment by enzyme immunoassay; format: organism-based; design: dose 0.3-2.7 mg/kg, route oral; settings: in vivo, 3 h
Rattus norvegicus = test: Antipsychotic activity in po dosed rat assessed as reduction in conditioned avoidance response after 60 mins; format: functional
Mus musculus [6] = test: Toxicity in po dosed mouse assessed as induction of catalepsy; format: organism-based; settings: in vivo
[7] = Oral bioavailability in rat at 12 mg/kg by HPLC-MS analysis; format: ADME, organism-based; settings: in vivo
Mus musculus [8] = system: Mus musculus
Description: Antipsychotic activity in po dosed mouse assessed as reduction in apomorphine-induced climbing behavior administered for 30 mins prior to apomorphine-challenge measured at 10 to 30 mins post-dose

[9] = Cmax in rat at 12 mg/kg, po by HPLC-MS analysis; format: ADME, organism-based; design: dose 12 mg/kg, route oral; settings: in vivo
[10] = Tmax in rat at 12 mg/kg, po by HPLC-MS analysis; format: ADME, organism-based; design: dose 12 mg/kg, route oral; settings: in vivo
[11] = Half life in rat at 5 mg/kg, iv by HPLC-MS analysis; format: ADME, organism-based; design: dose 5 mg/kg, route intravenous; settings: in vivo
in vivo = settings: mouse, po
Description: Therapeutic Index, ratio of ED50 for catalepsy in mouse to ED50 for antipsychotic activity in po dosed mouse assessed as reduction in apomorphine-induced climbing behavior

T1 sequence (P14416 whole entry): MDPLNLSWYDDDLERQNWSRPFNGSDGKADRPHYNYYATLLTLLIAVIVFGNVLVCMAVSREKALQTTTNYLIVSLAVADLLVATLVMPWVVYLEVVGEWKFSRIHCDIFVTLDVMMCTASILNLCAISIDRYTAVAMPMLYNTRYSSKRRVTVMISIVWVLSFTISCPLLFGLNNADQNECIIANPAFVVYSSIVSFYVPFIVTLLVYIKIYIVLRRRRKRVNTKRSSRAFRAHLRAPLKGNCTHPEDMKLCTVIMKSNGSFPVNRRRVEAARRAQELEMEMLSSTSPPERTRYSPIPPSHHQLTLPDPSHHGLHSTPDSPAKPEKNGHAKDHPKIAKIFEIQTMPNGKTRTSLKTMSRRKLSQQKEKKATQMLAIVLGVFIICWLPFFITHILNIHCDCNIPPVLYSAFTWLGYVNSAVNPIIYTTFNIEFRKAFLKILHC

Question: With `Cc1cc(=O)oc2c(Cl)c(OCCCCN3CCC(c4noc5cc(F)ccc45)CC3)ccc12` as the compound, how does the Activity (D(2) dopamine receptor [1]) read?
Answer: 2%

Question: And the Activity (Mus musculus [2])?
Answer: Non-toxic

Question: And the inhibition (D(2) dopamine receptor [3])?
Answer: 101%

Question: And the ED50 (Mus musculus [4])?
Answer: 0.32 mg/kg

Question: And the Activity (Mus musculus [5])?
Answer: Non-toxic

Question: What about the Activity (Rattus norvegicus) of the same compound?
Answer: Dose-dependent effect

Question: What about the ED50 (Rattus norvegicus; 1 h) of the same compound?
Answer: 6.5 mg/kg

Question: And the ED50 (Mus musculus [6])?
Answer: 70.85 mg/kg

Question: And the bioavailability [7]?
Answer: 32%

Question: What about the Activity (Mus musculus [8]) of the same compound?
Answer: Dose-dependent effect

Question: What about the Cmax [9] of the same compound?
Answer: 0.0721 µg/mL

Question: What about the Tmax [10] of the same compound?
Answer: 3 h

Question: What about the half-life [11] of the same compound?
Answer: 5 h

Question: What about the selectivity ratio (in vivo) of the same compound?
Answer: 215
